In ChEMBL document CHEMBL1629642, “In vitro efficacy of ST246 against smallpox and monkeypox” (Antimicrob Agents Chemother, 2009):
Activity calls are given as the source filed them. The calls are words filed in the database; no cut-off is given here.

Legend:
Monkeypox virus [1] = test: Antiviral activity against Monkeypox virus V81-I-179 infected in african green monkey BSC-40 cells at 0.015 uM by IHC staining-based comet tail reduction assay; format: functional, organism-based
Monkeypox virus [2] = test: Antiviral activity against Monkeypox virus V78-I-3945 infected in african green monkey BSC-40 cells at 0.05 to 0.5 uM by IHC staining-based plaque reduction assay; format: functional, organism-based
Monkeypox virus [3] = test: Antiviral activity against Monkeypox virus V78-I-3945 infected in african green monkey BSC-40 cells at 0.05 to 0.5 uM by IHC staining-based comet tail reduction assay; format: functional, organism-based
Variola virus [4] = test: Antiviral activity against Variola virus SLN68-258 infected in african green monkey BSC-40 cells at 0.05 to 0.5 uM by IHC staining-based comet tail reduction assay; format: functional, organism-based
Variola virus [5] = test: Antiviral activity against Variola virus SUD47-juba infected in african green monkey BSC-40 cells at 0.05 to 0.5 uM by IHC staining-based comet tail reduction assay; format: functional, organism-based
Variola virus [6] = test: Antiviral activity against Variola virus NEP73-175 infected in african green monkey BSC-40 cells at 0.005 uM uM by IHC staining-based plaque reduction assay; format: functional, organism-based
Variola virus [7] = test: Antiviral activity against Variola virus SOM77-ali infected in african green monkey BSC-40 cells at 0.005 uM by IHC staining-based comet tail reduction assay; format: functional, organism-based
Variola virus [8] = test: microbe, parasite or virus in culture; details: SUD47-juba, BSC-40
Monkeypox virus [9] = test: Antiviral activity against Monkeypox virus V1979-I-005 infected in african green monkey BSC-40 cells assessed as reduction in virus-induced cytopathic effect at 0.05 to 5 uM; format: functional, organism-based
Monkeypox virus [10] = test: Antiviral activity against Monkeypox virus V78-I-3945 infected in african green monkey BSC-40 cells assessed as reduction in virus-induced cytopathic effect at 0.05 to 5 uM; format: functional, organism-based
Variola virus [11] = test: Antiviral activity against Variola virus SLN68-258 infected in african green monkey BSC-40 cells at 0.05 to 0.5 uM by IHC staining-based plaque reduction assay; format: functional, organism-based
Monkeypox virus [12] = test: Antiviral activity against Monkeypox virus V1979-I-005 infected in african green monkey BSC-40 cells at 0.05 to 0.5 uM by IHC staining-based plaque reduction assay; format: functional, organism-based
Variola virus [13] = test: Antiviral activity against Variola virus BRZ66-39 infected in african green monkey BSC-40 cells at 0.05 to 0.5 uM by IHC staining-based plaque reduction assay; format: functional, organism-based
Monkeypox virus [14] = test: Antiviral activity against Monkeypox virus V81-I-179 infected in african green monkey BSC-40 cells at 0.005 uM by IHC staining-based comet tail reduction assay; format: functional, organism-based
Variola virus [15] = test: Antiviral activity against Variola virus SUD47-juba infected in african green monkey BSC-40 cells at 0.005 uM uM by IHC staining-based plaque reduction assay; format: functional, organism-based
Variola virus [16] = test: Antiviral activity against Variola virus SLN68-258 infected in african green monkey BSC-40 cells at 0.005 uM uM by IHC staining-based plaque reduction assay; format: functional, organism-based
Variola virus [17] = test: Antiviral activity against Variola virus NEP73-175 infected in african green monkey BSC-40 cells at 0.005 uM assessed as reduction in virus-induced cytopathic effect; format: functional, organism-based
Variola virus [18] = test: Antiviral activity against Variola virus SOM77-ali infected in african green monkey BSC-40 cells at 0.005 uM uM by IHC staining-based plaque reduction assay; format: functional, organism-based
Monkeypox virus [19] = test: Antiviral activity against Monkeypox virus 2003-USA-039 infected in african green monkey BSC-40 cells assessed as reduction in virus-induced cytopathic effect at 0.05 to 5 uM; format: functional, organism-based
Monkeypox virus [20] = test: Antiviral activity against Monkeypox virus V1979-I-005 infected in african green monkey BSC-40 cells at 0.005 uM by IHC staining-based comet tail reduction assay; format: functional, organism-based
Monkeypox virus [21] = test: Antiviral activity against Monkeypox virus V78-I-3945 infected in african green monkey BSC-40 cells assessed as reduction in viral plaque formation at 0.015 uM uM by IHC staining-based plaque reduction assay; format: functional
Monkeypox virus [22] = test: Antiviral activity against Monkeypox virus V81-I-179 infected in african green monkey BSC-40 cells at 0.05 to 0.5 uM by IHC staining-based comet tail reduction assay; format: functional, organism-based
Monkeypox virus [23] = test: Antiviral activity against Monkeypox virus V81-I-179 infected in african green monkey BSC-40 cells assessed as reduction in virus-induced cytopathic effect at 0.005 uM; format: functional, organism-based
Monkeypox virus [24] = test: Antiviral activity against Monkeypox virus V1979-I-005 infected in african green monkey BSC-40 cells assessed as reduction in virus-induced cytopathic effect at 0.015 uM; format: functional, organism-based
Variola virus [25] = test: Antiviral activity against Variola virus BSH74-sol infected in african green monkey BSC-40 cells at 0.005 uM assessed as reduction in virus-induced cytopathic effect; format: functional, organism-based
Monkeypox virus [26] = test: Antiviral activity against Monkeypox virus 2003-USA-039 infected in african green monkey BSC-40 cells assessed as reduction in virus-induced cytopathic effect at 0.015 uM; format: functional, organism-based
Monkeypox virus [27] = test: Antiviral activity against Monkeypox virus V81-I-179 infected in african green monkey BSC-40 cells assessed as reduction in virus-induced cytopathic effect at 0.015 uM; format: functional, organism-based
Variola virus [28] = test: Antiviral activity against Variola virus SUD47-juba infected in african green monkey BSC-40 cells at 0.05 to 5 uM assessed as reduction in virus-induced cytopathic effect; format: functional, organism-based
Monkeypox virus [29] = test: Antiviral activity against Monkeypox virus 2003-USA-039 infected in african green monkey BSC-40 cells assessed as reduction in virus-induced cytopathic effect at 0.005 uM; format: functional, organism-based
Monkeypox virus [30] = test: Antiviral activity against Monkeypox virus V77-I-823 infected in african green monkey BSC-40 cells assessed as reduction in virus-induced cytopathic effect at 0.05 to 5 uM; format: functional, organism-based
Monkeypox virus [31] = test: Antiviral activity against Monkeypox virus V1979-I-005 infected in african green monkey BSC-40 cells at 0.015 uM by IHC staining-based comet tail reduction assay; format: functional, organism-based
Variola virus [32] = test: Antiviral activity against Variola virus NEP73-175 infected in african green monkey BSC-40 cells at 0.015 uM by IHC staining-based comet tail reduction assay; format: functional, organism-based
Monkeypox virus [33] = test: Antiviral activity against Monkeypox virus V77-I-823 infected in african green monkey BSC-40 cells assessed as reduction in viral plaque formation at 0.015 uM uM by IHC staining-based plaque reduction assay; format: functional
Variola virus [34] = test: Antiviral activity against Variola virus SOM77-ali infected in african green monkey BSC-40 cells at 0.005 uM assessed as reduction in virus-induced cytopathic effect; format: functional, organism-based
Variola virus [35] = test: Antiviral activity against Variola virus SUD47-juba infected in african green monkey BSC-40 cells at 0.005 uM assessed as reduction in virus-induced cytopathic effect; format: functional, organism-based
Variola virus [36] = test: Antiviral activity against Variola virus BRZ66-39 infected in african green monkey BSC-40 cells at 0.005 uM by IHC staining-based comet tail reduction assay; format: functional, organism-based
Variola virus [37] = test: Antiviral activity against Variola virus BRZ66-39 infected in african green monkey BSC-40 cells at 0.005 uM assessed as reduction in virus-induced cytopathic effect; format: functional, organism-based

With `O=C(NN1C(=O)[C@@H]2[C@@H]3C=C[C@@H]([C@H]4C[C@@H]34)[C@@H]2C1=O)c1ccc(C(F)(F)F)cc1` [TECOVIRIMAT] the Activity (Monkeypox virus [1]) was “Active”, the Activity (Monkeypox virus [2]) was “Active” and the Activity (Monkeypox virus [3]) was “Active”. The Activity (Variola virus [4]) was “Active”, the Activity (Variola virus [5]) was “Active” and the Activity (Variola virus [6]) was “inactive”. For the same compound, the Activity (Variola virus [7]) was “inactive”, the EC50 (Variola virus [8]) was 19 nM and the Activity (Monkeypox virus [9]) was “Active”. For the same compound, the Activity (Monkeypox virus [10]) was “Active”, the Activity (Variola virus [11]) was “Active” and the Activity (Monkeypox virus [12]) was “Active”. For the same compound, the Activity (Variola virus [13]) was “Active”, the Activity (Monkeypox virus [14]) was “inactive” and the Activity (Variola virus [15]) was “inactive”. For the same compound, the Activity (Variola virus [16]) was “inactive”, the Activity (Variola virus [17]) was “inactive” and the Activity (Variola virus [18]) was “inactive”. The Activity (Monkeypox virus [19]) was “Active”, the Activity (Monkeypox virus [20]) was “inactive” and the “inhibition (INH)” value (Monkeypox virus [21]) was 50%. The Activity (Monkeypox virus [22]) was “Active”, the Activity (Monkeypox virus [23]) was “inactive” and the Activity (Monkeypox virus [24]) was “Active”. The Activity (Variola virus [25]) was “inactive”, the Activity (Monkeypox virus [26]) was “Active” and the Activity (Monkeypox virus [27]) was “Active”. The Activity (Variola virus [28]) was “Active”, the Activity (Monkeypox virus [29]) was “inactive” and the Activity (Monkeypox virus [30]) was “Active”. The Activity (Monkeypox virus [31]) was “Active”, the Activity (Variola virus [32]) was “Active” and the “inhibition (INH)” value (Monkeypox virus [33]) was 50%. The Activity (Variola virus [34]) was “inactive”, the Activity (Variola virus [35]) was “inactive” and the Activity (Variola virus [36]) was “inactive”. The Activity (Variola virus [37]) was “inactive”.
